Experimental data from publication PMC11271513, “Pseudoirreversible inhibition elicits persistent efficacy of a sphingosine 1-phosphate receptor 1 antagonist” (Nature Communications, 2024).

Tests used:
[1] = biological target: T1, Sphingosine 1-phosphate receptor 1 (S1PR1) (Homo sapiens, UniProt P21453, M124V); test: functional reversibility assays (internalization, cAMP); format: cell-based
T1 construct: HiBiT-tagged human S1PR1 Val124 mutant in HEK293 cells

[2] = biological target: T2, Sphingosine 1-phosphate receptor 1 (S1PR1) (Homo sapiens, UniProt P21453); test: GTP binding assay; also functional reversibility and washout dissociation half-life […] h; format: biochemical
T2 construct: human S1PR1 in HEK293 cell membranes
T2 sequence (P21453 whole entry): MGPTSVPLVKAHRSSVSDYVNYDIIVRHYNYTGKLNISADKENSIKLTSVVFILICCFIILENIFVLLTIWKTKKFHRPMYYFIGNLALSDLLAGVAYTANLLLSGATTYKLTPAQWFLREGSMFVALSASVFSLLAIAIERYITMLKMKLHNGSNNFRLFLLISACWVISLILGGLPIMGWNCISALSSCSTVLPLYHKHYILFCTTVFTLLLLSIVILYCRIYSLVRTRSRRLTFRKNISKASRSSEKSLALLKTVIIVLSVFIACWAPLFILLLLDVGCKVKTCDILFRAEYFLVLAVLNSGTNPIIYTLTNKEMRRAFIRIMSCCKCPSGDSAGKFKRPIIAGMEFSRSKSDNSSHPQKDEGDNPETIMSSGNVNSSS

T1 sequence (P21453 whole entry M124V): as the sequence (P21453 whole entry) above, with M124V counted along it

IC50 [2]: 6.4 nM
SMILES: CCN(c1ccc(Cl)c(C(F)(F)F)c1)C(C)c1ccc(C)c(CN2CC(C(=O)O)C2)c1 (racemic) [KSI-6666]
functional reversibility assays (internalization, cAMP) [1]: in the Val124 mutant, pre-bound KSI-6666 was almost completely replaced by the added agonist
